Experimental data published in ChEMBL document CHEMBL3046835, “Insecticidal activity influence of beta-cypermethrin on the pathogenicity of Beauveria bassiana against Aleurodicus disperses” (Crop Prot, 2013).
Values after ≈ are worked out from the molar mass of the structure shown.

Legend:
Aleurodicus dispersus [1] = test: Insecticidal activity against third-instar nymph stage of Aleurodicus dispersus in guava plant leaves assessed as mortality at 8 mg/L applied via hand sprayer measured after 6 days in presence of 10^8 Beauveria bassiana conidial suspension under field conditions (reference value: 26.9 +/-3.04%); format: functional; settings: 144 h
Aleurodicus dispersus [2] = test: Insecticidal activity against third-instar nymph stage of Aleurodicus dispersus in guava plant leaves assessed as mortality at 4 mg/L applied via hand sprayer measured after 6 days under field conditions (reference value: 3.5%); format: functional; settings: 144 h
Aleurodicus dispersus [3] = test: Insecticidal activity against third-instar nymph stage of Aleurodicus dispersus in guava plant leaves assessed as mortality at 4 mg/L applied via hand sprayer measured after 3 days in presence of 10^8 Beauveria bassiana conidial suspension under field conditions (reference value: 22.2 +/-3.15%); format: functional; settings: 72 h
Aleurodicus dispersus [4] = test: Insecticidal activity against third-instar nymph stage of Aleurodicus dispersus in guava leaves assessed as mortality at 5 mg/l treated for 15 s measured at 27 +/-2 degC after 48 hr (reference value: 3%); format: functional
Beauveria bassiana [5] = test: Inhibition of Beauveria bassiana Bb-N1 mycelial growth at 8 mg/L measured at 27 +/-2 degC after 10 days (reference value: 2.4 +/-0.19%); format: organism-based; parameters: scale not given: the % may be the effect or the level left; settings: in vivo, 240 h
Aleurodicus dispersus [6] = test: Insecticidal activity against third-instar nymph stage of Aleurodicus dispersus in guava plant leaves assessed as mortality at 4 mg/l measured after 9 days under laboratory conditions (reference value: 3%); format: functional; settings: 216 h
Aleurodicus dispersus [7] = test: Insecticidal activity against third-instar nymph stage of Aleurodicus dispersus in guava leaves assessed as mortality at 20 mg/l treated for 15 s measured at 27 +/-2 degC after 48 hr (reference value: 3%); format: functional
Aleurodicus dispersus [8] = test: Insecticidal activity against third-instar nymph stage of Aleurodicus dispersus in guava plant leaves assessed as mortality at 2 mg/L applied via hand sprayer measured after 3 days under field conditions (reference value: 3%); format: functional; settings: 72 h
Aleurodicus dispersus [9] = test: Insecticidal activity against third-instar nymph stage of Aleurodicus dispersus in guava plant leaves assessed as mortality at 4 mg/L applied via hand sprayer measured after 3 days under field conditions (reference value: 3%); format: functional; settings: 72 h
Aleurodicus dispersus [10] = test: Insecticidal activity against third-instar nymph stage of Aleurodicus dispersus in guava leaves assessed as mortality treated for 15 s measured at 27 +/-2 degC after 24 hr; format: functional
Beauveria bassiana [11] = test: Inhibition of Beauveria bassiana Bb-N1 mycelial growth at 4 mg/L measured at 27 +/-2 degC after 10 days (reference value: 2.4 +/-0.19%); format: organism-based; parameters: scale not given: the % may be the effect or the level left; settings: in vivo, 240 h
Aleurodicus dispersus [12] = test: Insecticidal activity against third-instar nymph stage of Aleurodicus dispersus in guava plant leaves assessed as mortality at 2 mg/l measured after 3 days in presence of 10^8 Beauveria bassiana conidial suspension under laboratory conditions (reference value: 24.3 +/-1.03%); format: functional; settings: 72 h
Beauveria bassiana [13] = test: Effect on Beauveria bassiana Bb-N1 conidial germination at 10 mg/L measured at 27 +/-2 degC after 24 hr (reference value: 94.85 +/-2.13%); format: ADME, organism-based; settings: in vivo
Aleurodicus dispersus [14] = test: Insecticidal activity against third-instar nymph stage of Aleurodicus dispersus in guava plant leaves assessed as mortality at 8 mg/L applied via hand sprayer measured after 3 days in presence of 10^8 Beauveria bassiana conidial suspension under field conditions (reference value: 22.2 +/-3.15%); format: functional; settings: 72 h
Aleurodicus dispersus [15] = test: Insecticidal activity against third-instar nymph stage of Aleurodicus dispersus in guava plant leaves assessed as mortality at 8 mg/L applied via hand sprayer measured after 6 days under field conditions (reference value: 3.5%); format: functional; settings: 144 h
Aleurodicus dispersus [16] = test: Insecticidal activity against third-instar nymph stage of Aleurodicus dispersus in guava plant leaves assessed as mortality at 8 mg/l measured after 9 days under laboratory conditions (reference value: 3%); format: functional; settings: 216 h
Beauveria bassiana [17] = test: Effect on Beauveria bassiana Bb-N1 conidial germination at 2 mg/L measured at 27 +/-2 degC after 24 hr (reference value: 94.85 +/-2.13%); format: ADME, organism-based; settings: in vivo
Aleurodicus dispersus [18] = test: Insecticidal activity against third-instar nymph stage of Aleurodicus dispersus in guava plant leaves assessed as mortality at 4 mg/L applied via hand sprayer measured after 6 days in presence of 10^8 Beauveria bassiana conidial suspension under field conditions (reference value: 26.9 +/-3.04%); format: functional; settings: 144 h
Aleurodicus dispersus [19] = test: Insecticidal activity against third-instar nymph stage of Aleurodicus dispersus in guava plant leaves assessed as mortality at 4 mg/l measured after 3 days in presence of 10^8 Beauveria bassiana conidial suspension under laboratory conditions (reference value: 24.3 +/-1.03%); format: functional; settings: 72 h
Aleurodicus dispersus [20] = test: Insecticidal activity against third-instar nymph stage of Aleurodicus dispersus in guava leaves assessed as mortality at 5 mg/l treated for 15 s measured at 27 +/-2 degC after 24 hr (reference value: 2%); format: functional
Aleurodicus dispersus [21] = test: Insecticidal activity against third-instar nymph stage of Aleurodicus dispersus in guava plant leaves assessed as mortality at 4 mg/L applied via hand sprayer measured after 9 days under field conditions (reference value: 4%); format: functional; settings: 216 h
Beauveria bassiana [22] = test: Effect on Beauveria bassiana Bb-N1 conidial germination at 8 mg/L measured at 27 +/-2 degC after 24 hr (reference value: 94.85 +/-2.13%); format: ADME, organism-based; settings: in vivo
Aleurodicus dispersus [23] = test: Insecticidal activity against third-instar nymph stage of Aleurodicus dispersus in guava plant leaves assessed as mortality at 8 mg/L applied via hand sprayer measured after 9 days under field conditions (reference value: 4%); format: functional; settings: 216 h
Aleurodicus dispersus [24] = test: Insecticidal activity against third-instar nymph stage of Aleurodicus dispersus in guava leaves assessed as mortality at 40 mg/l treated for 15 s measured at 27 +/-2 degC after 48 hr (reference value: 3%); format: functional
Aleurodicus dispersus [25] = test: Insecticidal activity against third-instar nymph stage of Aleurodicus dispersus in guava plant leaves assessed as mortality at 8 mg/l measured after 6 days in presence of 10^8 Beauveria bassiana conidial suspension under laboratory conditions (reference value: 32.8 +/-2.39%); format: functional; settings: 144 h
Aleurodicus dispersus [26] = test: Insecticidal activity against third-instar nymph stage of Aleurodicus dispersus in guava plant leaves assessed as mortality at 4 mg/l measured after 9 days in presence of 10^8 Beauveria bassiana conidial suspension under laboratory conditions (reference value: 45.7 +/-3.18%); format: functional; settings: 216 h
Aleurodicus dispersus [27] = test: Insecticidal activity against third-instar nymph stage of Aleurodicus dispersus in guava plant leaves assessed as mortality at 8 mg/l measured after 9 days in presence of 10^8 Beauveria bassiana conidial suspension under laboratory conditions (reference value: 45.7 +/-3.18%); format: functional; settings: 216 h
Aleurodicus dispersus [28] = test: Insecticidal activity against third-instar nymph stage of Aleurodicus dispersus in guava plant leaves assessed as mortality at 2 mg/L applied via hand sprayer measured after 9 days in presence of 10^8 Beauveria bassiana conidial suspension under field conditions (reference value: 42.3 +/-3.58%); format: functional; settings: 216 h

**Q.** For `CC1(C)[C@H](C=C(Cl)Cl)[C@H]1C(=O)O[C@@H](C#N)c1cccc(Oc2ccccc2)c1` [BETA-CYPERMETHRIN], which mortality at 8 µg/mL (Aleurodicus dispersus [1]) is on record?
**A.** The mortality at 8 µg/mL was 62.2%.

**Q.** And the mortality at 4 µg/mL (Aleurodicus dispersus [2])?
**A.** Its mortality at 4 µg/mL is 26.7%.

**Q.** What about the mortality at 4 µg/mL (Aleurodicus dispersus [3]) of the same molecule?
**A.** Its mortality at 4 µg/mL is 37.6%.

**Q.** And the mortality at 5 µg/mL (Aleurodicus dispersus [4])?
**A.** Its mortality at 5 µg/mL is 32.3%.

**Q.** And the Activity (Beauveria bassiana [5])?
**A.** Its Activity is 4.4%.

**Q.** What about the mortality at 4 µg/mL (Aleurodicus dispersus [6]) of the same molecule?
**A.** The mortality at 4 µg/mL was 34.1%.

**Q.** What about the mortality at 20 µg/mL (Aleurodicus dispersus [7]) of the same molecule?
**A.** Its mortality at 20 µg/mL is 52.8%.

**Q.** What about the mortality at 2 µg/mL (Aleurodicus dispersus [8]) of the same molecule?
**A.** Its mortality at 2 µg/mL is 20.9%.

**Q.** And the mortality at 4 µg/mL (Aleurodicus dispersus [9])?
**A.** Its mortality at 4 µg/mL is 26.7%.

**Q.** What about the LC95 (Aleurodicus dispersus [10]) of the same molecule?
**A.** The LC95 was 1551.51 µg/mL (≈ 3730 µM).

**Q.** And the LC50 (Aleurodicus dispersus [10]; Aleurodicus dispersus, Nymph stage, 24 h)?
**A.** Its LC50 is 50 µg/mL (≈ 120 µM).

**Q.** What about the Activity (Beauveria bassiana [11]) of the same molecule?
**A.** The Activity was 3.1%.

**Q.** What about the mortality at 2 µg/mL (Aleurodicus dispersus [12]) of the same molecule?
**A.** The mortality at 2 µg/mL was 67.7%.

**Q.** What about the germination rate (Beauveria bassiana [13]) of the same molecule?
**A.** The germination rate was 89.18%.

**Q.** What about the mortality at 8 µg/mL (Aleurodicus dispersus [14]) of the same molecule?
**A.** Its mortality at 8 µg/mL is 42.3%.

**Q.** And the mortality at 8 µg/mL (Aleurodicus dispersus [15])?
**A.** The mortality at 8 µg/mL was 29.4%.

**Q.** And the mortality at 8 µg/mL (Aleurodicus dispersus [16])?
**A.** The mortality at 8 µg/mL was 39.3%.

**Q.** What about the germination rate (Beauveria bassiana [17]) of the same molecule?
**A.** The germination rate was 93.78%.

**Q.** And the mortality at 4 µg/mL (Aleurodicus dispersus [18])?
**A.** The mortality at 4 µg/mL was 60.5%.

**Q.** And the mortality at 4 µg/mL (Aleurodicus dispersus [19])?
**A.** Its mortality at 4 µg/mL is 74.3%.

**Q.** What about the mortality at 5 µg/mL (Aleurodicus dispersus [20]) of the same molecule?
**A.** The mortality at 5 µg/mL was 16.2%.

**Q.** And the mortality at 4 µg/mL (Aleurodicus dispersus [21])?
**A.** The mortality at 4 µg/mL was 26.7%.

**Q.** And the germination rate (Beauveria bassiana [22])?
**A.** Its germination rate is 92.31%.

**Q.** And the mortality at 8 µg/mL (Aleurodicus dispersus [23])?
**A.** Its mortality at 8 µg/mL is 29.4%.

**Q.** What about the mortality at 40 µg/mL (Aleurodicus dispersus [24]) of the same molecule?
**A.** Its mortality at 40 µg/mL is 60.3%.

**Q.** And the mortality at 8 µg/mL (Aleurodicus dispersus [25])?
**A.** The mortality at 8 µg/mL was 80.6%.

**Q.** And the mortality at 4 µg/mL (Aleurodicus dispersus [26])?
**A.** Its mortality at 4 µg/mL is 77.6%.

**Q.** And the mortality at 8 µg/mL (Aleurodicus dispersus [27])?
**A.** Its mortality at 8 µg/mL is 80.6%.

**Q.** What about the mortality at 2 µg/mL (Aleurodicus dispersus [28]) of the same molecule?
**A.** Its mortality at 2 µg/mL is 54.2%.
